Results as given in ChEMBL document CHEMBL3991601, “The target landscape of clinical kinase drugs” (Science, 2017).
pKd: −log10 of the molar value. Calls of active or inactive are those of the source. For most assays here, no stated cut-off is given here; in the data, actives have a measured Kd and inactives only a lower limit.

Assays:
[1] = target: Tyrosine-protein kinase ABL1 (Homo sapiens, UniProt P00519)
[2] = target: T1, Thyroid hormone receptor-associated protein 3 (Homo sapiens, UniProt Q9Y2W1)
T1 sequence (Q9Y2W1 whole entry): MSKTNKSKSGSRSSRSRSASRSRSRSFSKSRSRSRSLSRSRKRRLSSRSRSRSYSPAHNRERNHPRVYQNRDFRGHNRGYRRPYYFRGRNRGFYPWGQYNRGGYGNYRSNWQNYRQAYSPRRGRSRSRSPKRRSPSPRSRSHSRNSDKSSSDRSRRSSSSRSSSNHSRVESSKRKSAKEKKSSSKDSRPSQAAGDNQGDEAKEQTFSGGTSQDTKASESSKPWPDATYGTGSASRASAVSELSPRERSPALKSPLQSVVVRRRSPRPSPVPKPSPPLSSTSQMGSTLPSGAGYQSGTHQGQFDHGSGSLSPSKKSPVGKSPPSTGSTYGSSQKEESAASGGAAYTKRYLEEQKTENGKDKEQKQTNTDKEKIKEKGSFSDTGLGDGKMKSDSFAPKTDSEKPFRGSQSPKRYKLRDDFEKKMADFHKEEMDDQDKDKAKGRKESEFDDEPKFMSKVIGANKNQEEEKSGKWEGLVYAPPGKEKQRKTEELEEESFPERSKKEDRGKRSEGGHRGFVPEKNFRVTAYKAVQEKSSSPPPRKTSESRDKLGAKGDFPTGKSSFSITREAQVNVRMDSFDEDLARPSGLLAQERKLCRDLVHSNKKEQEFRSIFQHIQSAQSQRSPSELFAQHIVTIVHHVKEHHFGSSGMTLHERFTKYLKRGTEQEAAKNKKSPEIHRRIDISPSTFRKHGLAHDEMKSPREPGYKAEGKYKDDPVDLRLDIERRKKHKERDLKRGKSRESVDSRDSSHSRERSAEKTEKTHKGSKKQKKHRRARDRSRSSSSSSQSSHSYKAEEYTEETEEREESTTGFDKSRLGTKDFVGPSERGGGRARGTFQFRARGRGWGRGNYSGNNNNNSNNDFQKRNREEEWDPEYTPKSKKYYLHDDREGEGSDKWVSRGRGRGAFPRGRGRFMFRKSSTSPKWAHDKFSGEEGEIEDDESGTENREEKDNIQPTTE

[3] = target: T2, Ferrochelatase, mitochondrial (Homo sapiens, UniProt P22830)
T2 sequence (P22830 whole entry): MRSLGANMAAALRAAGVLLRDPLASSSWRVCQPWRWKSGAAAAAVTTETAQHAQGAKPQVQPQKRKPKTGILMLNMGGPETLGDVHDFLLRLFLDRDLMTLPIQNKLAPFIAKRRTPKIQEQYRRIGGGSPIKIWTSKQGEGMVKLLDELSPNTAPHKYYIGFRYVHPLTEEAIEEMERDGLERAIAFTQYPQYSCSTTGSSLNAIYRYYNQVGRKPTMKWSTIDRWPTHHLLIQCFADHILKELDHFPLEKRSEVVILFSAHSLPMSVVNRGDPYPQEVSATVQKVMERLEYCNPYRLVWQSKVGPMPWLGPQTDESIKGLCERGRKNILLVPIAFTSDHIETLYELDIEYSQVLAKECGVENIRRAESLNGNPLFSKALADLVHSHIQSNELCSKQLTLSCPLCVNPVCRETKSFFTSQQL

[4] = target: T3, Mitogen-activated protein kinase kinase kinase 3 (Homo sapiens, UniProt Q99759)
T3 sequence (Q99759 whole entry): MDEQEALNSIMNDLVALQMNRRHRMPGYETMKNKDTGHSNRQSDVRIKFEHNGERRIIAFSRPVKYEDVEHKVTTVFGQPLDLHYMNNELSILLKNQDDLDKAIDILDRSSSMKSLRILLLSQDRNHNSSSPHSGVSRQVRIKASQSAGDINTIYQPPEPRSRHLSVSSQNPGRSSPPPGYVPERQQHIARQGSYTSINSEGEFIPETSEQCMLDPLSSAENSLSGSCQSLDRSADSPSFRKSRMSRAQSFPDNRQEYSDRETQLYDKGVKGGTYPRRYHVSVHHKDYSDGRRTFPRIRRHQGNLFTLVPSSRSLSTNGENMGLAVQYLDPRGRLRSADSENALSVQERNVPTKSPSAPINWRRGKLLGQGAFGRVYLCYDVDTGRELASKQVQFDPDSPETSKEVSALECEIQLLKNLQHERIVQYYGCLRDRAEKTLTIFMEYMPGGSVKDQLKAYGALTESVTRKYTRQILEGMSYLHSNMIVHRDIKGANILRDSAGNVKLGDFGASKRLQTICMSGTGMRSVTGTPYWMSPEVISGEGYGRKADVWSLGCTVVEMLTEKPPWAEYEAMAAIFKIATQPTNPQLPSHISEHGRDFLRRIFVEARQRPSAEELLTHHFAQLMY

[5] = target: T4, Dual specificity mitogen-activated protein kinase kinase 6 (Homo sapiens, UniProt P52564)
T4 sequence (P52564 whole entry): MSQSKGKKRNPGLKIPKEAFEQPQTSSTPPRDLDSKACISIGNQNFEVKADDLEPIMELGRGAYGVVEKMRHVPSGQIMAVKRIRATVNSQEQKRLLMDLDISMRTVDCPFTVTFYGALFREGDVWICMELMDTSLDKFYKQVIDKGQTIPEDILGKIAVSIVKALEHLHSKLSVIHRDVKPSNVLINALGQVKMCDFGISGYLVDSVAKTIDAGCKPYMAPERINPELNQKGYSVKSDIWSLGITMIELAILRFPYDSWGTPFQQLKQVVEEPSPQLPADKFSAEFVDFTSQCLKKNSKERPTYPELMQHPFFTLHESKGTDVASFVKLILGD

Tyrosine-protein kinase ABL1, sequence (P00519 whole entry): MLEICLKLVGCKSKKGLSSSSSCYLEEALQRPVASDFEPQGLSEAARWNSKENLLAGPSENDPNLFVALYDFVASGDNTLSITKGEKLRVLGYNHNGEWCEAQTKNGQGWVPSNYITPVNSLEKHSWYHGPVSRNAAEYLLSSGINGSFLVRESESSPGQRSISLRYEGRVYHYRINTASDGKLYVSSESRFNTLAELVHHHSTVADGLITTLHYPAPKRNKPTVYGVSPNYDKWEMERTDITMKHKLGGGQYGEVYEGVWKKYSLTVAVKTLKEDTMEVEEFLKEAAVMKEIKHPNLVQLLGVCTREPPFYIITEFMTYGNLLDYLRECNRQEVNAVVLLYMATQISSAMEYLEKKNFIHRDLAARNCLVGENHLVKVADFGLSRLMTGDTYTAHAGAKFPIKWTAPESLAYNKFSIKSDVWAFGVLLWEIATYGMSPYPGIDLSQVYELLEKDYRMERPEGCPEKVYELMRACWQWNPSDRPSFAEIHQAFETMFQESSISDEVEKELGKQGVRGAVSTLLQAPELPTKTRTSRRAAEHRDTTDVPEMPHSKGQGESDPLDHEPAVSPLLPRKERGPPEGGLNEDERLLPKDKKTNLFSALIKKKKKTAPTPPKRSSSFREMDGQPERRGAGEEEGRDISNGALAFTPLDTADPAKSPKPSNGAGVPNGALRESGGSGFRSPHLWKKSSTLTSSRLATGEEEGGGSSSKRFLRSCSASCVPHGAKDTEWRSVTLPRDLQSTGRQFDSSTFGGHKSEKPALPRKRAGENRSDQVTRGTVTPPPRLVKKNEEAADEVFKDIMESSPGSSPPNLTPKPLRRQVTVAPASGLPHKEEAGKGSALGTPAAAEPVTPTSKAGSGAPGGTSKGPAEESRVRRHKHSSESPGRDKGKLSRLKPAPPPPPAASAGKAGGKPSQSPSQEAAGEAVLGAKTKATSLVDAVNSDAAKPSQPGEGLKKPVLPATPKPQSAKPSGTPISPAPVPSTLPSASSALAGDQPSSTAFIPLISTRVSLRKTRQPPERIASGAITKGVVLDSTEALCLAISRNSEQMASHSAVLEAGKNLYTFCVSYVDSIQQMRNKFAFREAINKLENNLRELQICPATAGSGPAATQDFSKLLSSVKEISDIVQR

| Kd [1] | Kd [2] | Kd [3] | Kd [4] | Kd [5] | pKd [1] | pKd [3] | Structure (SMILES) |
| --- | --- | --- | --- | --- | --- | --- | --- |
| > 30 µM (inactive) | > 30 µM (inactive) | > 30 µM (inactive) | > 30 µM (inactive) | > 30 µM (inactive) | – | – | N#CC1(c2ccc(NC(=O)c3cccnc3NCc3ccncc3)cc2)CCCC1 [RIVOCERANIB] |
| > 30 µM (inactive) | > 30 µM (inactive) | > 30 µM (inactive) | > 30 µM (inactive) | > 30 µM (inactive) | – | – | Cn1cc(-c2cnn3c(N)c(Br)c([C@@H]4CCCNC4)nc23)cn1 [SCH-900776] |
| 0.921 µM (active) | > 30 µM (inactive) | > 30 µM (inactive) | > 30 µM (inactive) | > 30 µM (inactive) | – | – | COc1cc2c(Nc3ccc(Cl)c(Cl)c3F)ncnc2cc1OC[C@@H]1C[C@@H]2CN(C)C[C@@H]2C1 [TESEVATINIB] |
| 0.498 µM (active) | > 30 µM (inactive) | > 30 µM (inactive) | > 30 µM (inactive) | > 30 µM (inactive) | – | – | C[C@@H](NC(=O)c1ncnc(N)c1Cl)c1ncc(C(=O)Nc2cc(C(F)(F)F)c(Cl)cn2)s1 [TOVORAFENIB] |
| 0.075 µM (active) | > 30 µM (inactive) | > 30 µM (inactive) | > 30 µM (inactive) | > 30 µM (inactive) | – | – | CC(C)c1cc(CNc2nc(Nc3cc(C4CC4)[nH]n3)cc(N3CCN(C)CC3)n2)on1 [XL-228] |

The remaining lines, values behind:

| Structure (SMILES) | Kd [1] | Kd [2] | Kd [3] | Kd [4] | Kd [5] | pKd [1] | pKd [3] |
| --- | --- | --- | --- | --- | --- | --- | --- |
| CO[C@H]1C[C@@H]2CC[C@@H](C)[C@@](O)(O2)C(=O)C(=O)N2CCCC[C@H]2C(=O)O[C@H]([C@H](C)C[C@@H]2CC[C@@H](OP(C)(C)=O)[C@H](OC)C2)CC(=O)[C@H](C)/C=C(\C)[C@@H](O)[C@@H](OC)C(=O)[C@H](C)C[C@H](C)/C=C/C=C/C=C/1C [RIDAFOROLIMUS] | > 30 µM (inactive) | > 30 µM (inactive) | > 30 µM (inactive) | > 30 µM (inactive) | > 30 µM (inactive) | – | – |
| O=c1[nH]ccc2cc(OC3CCNCC3)ccc12 [SAR-407899 FREE BASE] | > 30 µM (inactive) | > 30 µM (inactive) | > 30 µM (inactive) | > 30 µM (inactive) | > 30 µM (inactive) | – | – |
| CO[C@H]1C[C@@H]2CC[C@@H](C)[C@@](O)(O2)C(=O)C(=O)N2CCCC[C@H]2C(=O)O[C@H]([C@H](C)C[C@@H]2CC[C@@H](O)[C@H](OC)C2)CC(=O)[C@H](C)/C=C(\C)[C@@H](O)[C@@H](OC)C(=O)[C@H](C)C[C@H](C)/C=C/C=C/C=C/1C [SIROLIMUS] | > 30 µM (inactive) | > 30 µM (inactive) | > 30 µM (inactive) | > 30 µM (inactive) | > 30 µM (inactive) | – | – |
| CO[C@H]1C[C@@H]2CC[C@@H](C)[C@@](O)(O2)C(=O)C(=O)N2CCCC[C@H]2C(=O)O[C@H]([C@H](C)C[C@@H]2CC[C@@H](OC(=O)C(C)(CO)CO)[C@H](OC)C2)CC(=O)[C@H](C)/C=C(\C)[C@@H](O)[C@@H](OC)C(=O)[C@H](C)C[C@H](C)/C=C/C=C/C=C/1C [TEMSIROLIMUS] | > 30 µM (inactive) | > 30 µM (inactive) | > 30 µM (inactive) | > 30 µM (inactive) | > 30 µM (inactive) | – | – |
| O=C(Cc1ccc(-c2ccc(OCCN3CCOCC3)cc2)cn1)NCc1ccccc1 [TIRBANIBULIN] | > 30 µM (inactive) | > 30 µM (inactive) | > 30 µM (inactive) | > 30 µM (inactive) | > 30 µM (inactive) | – | – |
| O=C1NC(=O)[C@@H](c2cn3c4c(cccc24)CCC3)[C@@H]1c1c[nH]c2ccccc12 [TIVANTINIB] | > 30 µM (inactive) | > 30 µM (inactive) | > 30 µM (inactive) | > 30 µM (inactive) | > 30 µM (inactive) | – | – |
| Cc1cc(Nc2ncnc3ccc(NC4=NC(C)(C)CO4)cc23)ccc1Oc1ccn2ncnc2c1 [TUCATINIB] | > 30 µM (inactive) | > 30 µM (inactive) | 3.91 µM (active) | > 30 µM (inactive) | > 30 µM (inactive) | – | – |
| CN1C/C=C/CCOc2cccc(c2)-c2ccnc(n2)Nc2cccc(c2)C1 [ZOTIRACICLIB] | – | > 30 µM (inactive) | – | > 30 µM (inactive) | > 30 µM (inactive) | 4.49 | 6.61 |
